“And” between values parts separate entries of the source, which are not always exact repeats. Equal entries are not always repeated. Where two headings read alike, the source gives them in different places.
What was measured:
[1] = radiometabolite analysis of NHP arterial plasma by HPLC; type: in vivo, cynomolgus monkey; details: 60 min post injection, n = 1
Description: The radiometabolite analysis was performed according to previous reports (Tu et al. 2011, 2015). Arterial blood samples (1.2–1.5 mL) were collected in a heparinized syringe at 2, 5, 15, 30, and 60 min (for [^11C]TZ1964B) or 5, 15 30, 60, 90, and 120 min (for [^18F]MNI659) postinjection of each radiotracer. Plasma (400 μL) was collected by centrifugation of the whole blood and mixed with ice‐cold methanol (0.92 mL) to deproteinate and extract the parent compound and radiolabeled metabolites. After centrifugation, the supernatant was mixed with water (1/1, v/v), and loaded onto a HPLC system with an Agilent SB C‐18 analytical HPLC column (250 mm × 4.6 mm, 5 μ) and a UV detector with 254 nm wavelength. The mobile phase was acetonitrile/0.1 mol/L ammonium formate buffer pH 4.5, (52/48, v/v) with a flow rate of 1.0 mL/min. The eluted fractions were collected for 16 min at 1 min intervals; the radioactivity of in each fraction was counted in a well counter, and results were corrected for background radiation and physical decay.

PDE10A [2] = details: cited from earlier work
PDE10A [3] = assay: microPET imaging of NHP brain, reference-based kinetic analysis and AUC ratio; type: in vivo, cynomolgus monkey; details: for AUC ratio: 60-120 min; for AUC ratio / BPND-Logan / BPND-SRTM / AUC ratio (Stri/Cere) / R1 / k2: mean ± SD; for AUC ratio (Stri/Cere): NHP striatum to cerebellum, 60-120 min data; for time of peak (max SUV) striatal uptake: post injection, averaged SUV curves
Description: PET imaging studies were carried out on two adult male cynomolgus monkeys, weighing on 7–8 kg. Subject A underwent three sets of double scans, and Subject B underwent one set of double scans. Animals were prepared for microPET studies as previously reported (Liu et al. 2015). About 1.5–2.5% isoflurane inhalation anesthesia was maintained throughout the microPET imaging sessions. A 20‐gage plastic catheter was inserted into a limb vein to permit hydration and injection of the radiotracer. Arterial blood was collected through another 20‐gage plastic catheter which was placed into a femoral artery.
The imaging studies of [^11C]TZ1964B and [^18F]MNI659 in the NHP brain through double scans were done using a MicroPET Focus 220 scanner (Concorde/CTI/Siemens Microsystems, Knoxville, TN). For all the double scans, [^11C]TZ1964B studies were performed in the morning and [^18F]MNI659 in the afternoon, with an interval of ~3 h between the injection of each tracer. Prior to each PET acquisition, a 45‐min transmission scan for attenuation correction was performed following a 10 min transmission that was used to check the position of the brain within the scanner. Subsequently, 296–370 MBq of [^11C]TZ1964B or [^18F]MNI659 was intravenously injected, and a 120 min dynamic (3 × 1‐min frames, 4 × 2‐min frames, 3 × 3‐min frames, and 20 × 5‐min frames) PET scan was acquired.
The PET images were processed according to the previous report (Liu et al. 2015). Briefly, emission scans were corrected and reconstructed using filtered back projection as described previously (Miller et al. 1989). The final reconstructed resolution was 2.00 mm full width at half maximum (FWHM) for all three dimensions (axial) at center of the field of view. The actual field of view is 25.8 cm diameter and a 7.6 cm axial length. The reconstructed PET images was co‐registered with magnetization‐prepared rapid gradient echo (MP‐RAGE) MR images using Automated Image Registration (AIR) (Woods et al. 1993), and superimposed using Analyze 10.0 (AnalyzeDirect, Overland Park, KS) for quality control. For quantitative analyses, three‐dimensional regions of interest (ROIs) for cerebellum (Subject A: 583 voxels; Subject B: 750 voxels, the voxel size is 1.858 mm × 1.858 mm × 0.796 mm = 2.75 μL), striatum (A: 695 voxels; B: 1158 voxels), frontal cortex (A: 263 voxels; B: 225 voxels), midbrain (A: 64 voxels; B: 118 voxels), and hippocampus (A: 68 voxels; B: 64 voxels) were identified on MRI images and then transformed into PET images using the co‐registration transformation matrix. The ROIs for each animal were kept fixed for all subsequent studies once identified on a baseline scan. Time–activity curves (TACs) for each ROI were then obtained from the dynamic PET images. Standardized uptake value (SUV) of each tracer was calculated and standardized to the body weight and the injected dose of radioactivity.
Regional tracer uptake was quantified using two different reference‐based kinetic methods: Logan Reference (LoganREF) model (Logan et al. 1990, 1996; Innis et al. 2007; Liu et al. 2015) and simplified reference tissue model (SRTM) (Lammertsma and Hume 1996; Gunn et al. 1997; Innis et al. 2007; Liu et al. 2015). According to the LoganREF model, the distribution volume ratio (DVR) of each ROI was calculated using a MATLAB (Mathworks Inc., Natick, MA). The nondisplaceable binding potential (BPND) was then estimated: BPND = DVR‐1. BPND and R1, k 2 values were also obtained from the SRTM model (Lammertsma and Hume 1996; Watabe et al. 1996).
We also calculated the area under the time–activity curve (AUC) for the striatal to cerebellar ratio (AUC‐striatum/AUC‐cerebellum); this is a simple model and input function‐independent method to quantify an index of tracer accumulation in the brain (Muller Herde et al. 2015). […] Ideally, the AUC ratio equals the DVR determined by LoganREF model (Muller Herde et al. 2015). […]

[4] = Log P measurement, 1-octanol/PBS pH 7.4; type: physicochemical; details: 1-octanol / 0.1 mol/L PBS pH 7.4, Log D7.4 taken as Log P
Description: Log P was measured according to the previous report (Li et al. 2013b), by adding different volumes of [^11C]TZ1964B or [^18F]MNI659 into a mixture of 1‐octanol (3 mL) and 0.1 mol/L phosphate‐buffered saline (PBS, pH 7.4, 3 mL). The mixture was vortexed and then centrifuged. Then, 2 mL organic layer was mixed with 1 mL 1‐octanol and 3 mL PBS buffer. The resulting mixture was vortexed and centrifuged again. Then 1 mL of the organic layer and 1 mL of the aqueous layer were separated and loaded in a gamma counter. The results were corrected for background radiation and physical decay. The partition coefficient Log D7.4, which equals Log P, was calculated as the decimal logarithm the ratio of cpm/mL of 1‐octanol to that of PBS.

PDE10A [5] = details: cited from earlier work; remark: listed apart in the source
[6] = NHP frontal cortex to cerebellum
[7] = NHP midbrain to cerebellum, n = 4 scans in 2 NHPs
[8] = NHP striatum, LoganREF model, cerebellum reference, n = 4 scans in 2 NHPs
[9] = NHP striatum, SRTM, cerebellum reference, n = 4 scans in 2 NHPs
[10] = Figure 1, no reference given, read-out: Kd

For `Cn1cc(-c2ccncc2)c(-c2ccc(OCc3nc4ccccc4cc3O[11CH3])cc2)n1` [[^11C]TZ1964B, 3‐[^11C]methoxy‐2‐((4‐(1‐methyl‐4‐(pyridin‐4‐yl)‐1H‐pyrazol‐3‐yl)phenoxy)methyl)‐quinoline], the “percentage of parent compound in plasma” value [1] is given as ~ 70%, the Ki (PDE10A [2]; Figure 1, no reference given) is given as 0.4 ± 0.02 nM and the AUC ratio (PDE10A [3]; [6]) is given as 1.38 ± 0.13. The BPND-Logan (PDE10A [3]; NHP frontal cortex) was 0.15 ± 0.05, the BPND-SRTM (PDE10A [3]; NHP frontal cortex) was 0.43 ± 0.28 and the AUC ratio (PDE10A [3]; NHP hippocampus to cerebellum) was 1.35 ± 0.41. For the same compound, the BPND-Logan (PDE10A [3]; NHP hippocampus) was 0.11 ± 0.25, the BPND-SRTM (PDE10A [3]; NHP hippocampus) was 0.32 ± 0.50 and the AUC ratio (PDE10A [3]; [7]) was 1.51 ± 0.47. The BPND-Logan (PDE10A [3]; NHP midbrain) was 0.26 ± 0.20, the BPND-SRTM (PDE10A [3]; NHP midbrain) was 0.57 ± 0.30 and the “AUC ratio (Stri/Cere)” value (PDE10A [3]; n = 4 scans in 2 NHPs) was 5.87 and 5.87 ± 0.45. For the same compound, the BPND-Logan (PDE10A [3]; [8]) was 3.72 and 3.72 ± 0.62, the BPND-SRTM (PDE10A [3]; [9]) was 4.39 and 4.39 ± 0.39 and the R1 (PDE10A [3]; NHP striatum, SRTM) was 1.16 ± 0.17. The k2 (PDE10A [3]; NHP striatum, SRTM) was 0.13 ± 0.017 min⁻¹, the “time of peak (max SUV) striatal uptake” value (PDE10A [3]; NHP striatum) was 40 to 60 min and the logP [4] was 1.98 ± 0.09. The Kd (PDE10A [5]; [10]) was 1.25 ± 0.2 nM.

In the case of `Cc1ccc2c(=O)n(-c3ccc(OCCF)cc3)c(CCN3C(=O)c4cccc(OC(C)C)c4C3=O)nc2c1` [MNI659], the logP [4] is listed as 1.98 and the Kd (PDE10A [5]; in vitro, given as Kd in Figure 1, ref Barret et al. 2014, read-out: binding potency for PDE10A) is listed as 0.097 nM.

With `Cc1ccc2c(=O)n(-c3ccc(OCC[18F])cc3)c(CCN3C(=O)c4cccc(OC(C)C)c4C3=O)nc2c1` [[^18F]MNI659, 2‐(2‐(3‐(4‐(2‐[^18F]fluoroethoxy)phenyl)‐7‐methyl‐4‐oxo‐3,4‐dihydroquinazolin‐2‐yl)ethyl)‐4‐isopropoxyisoindoline‐1,3‐dione] the “percentage of parent compound in plasma” value [1] was ~ 50%, the AUC ratio (PDE10A [3]; [6]) was 1.37 ± 0.12 and the BPND-Logan (PDE10A [3]; NHP frontal cortex) was 0.29 ± 0.10. The BPND-SRTM (PDE10A [3]; NHP frontal cortex) was 0.29 ± 0.09, the AUC ratio (PDE10A [3]; NHP hippocampus to cerebellum) was 1.08 ± 0.23 and the BPND-Logan (PDE10A [3]; NHP hippocampus) was 0.11 ± 0.18. The BPND-SRTM (PDE10A [3]; NHP hippocampus) was 0.16 ± 0.20, the AUC ratio (PDE10A [3]; [7]) was 2.59 ± 0.42 and the BPND-Logan (PDE10A [3]; NHP midbrain) was 1.02 ± 0.14. For the same compound, the BPND-SRTM (PDE10A [3]; NHP midbrain) was 1.11 ± 0.16, the “AUC ratio (Stri/Cere)” value (PDE10A [3]; n = 4 scans in 2 NHPs) was 7.60 and 7.60 ± 2.68 and the BPND-Logan (PDE10A [3]; [8]) was 5.08 and 5.08 ± 1.62. For the same compound, the “striatal K2 value relative to [^11C]TZ1964B” value (PDE10A [3]; NHP striatum, SRTM) was “twofold”, the BPND-SRTM (PDE10A [3]; [9]) was 5.33 and 5.33 ± 1.36 and the R1 (PDE10A [3]; NHP striatum, SRTM) was 1.20 ± 0.20. For the same compound, the k2 (PDE10A [3]; NHP striatum, SRTM) was 0.28 ± 0.13 min⁻¹, the “time of peak (max SUV) striatal uptake” value (PDE10A [3]; NHP striatum) was “about 10 min” and the logP [4] was 1.98 ± 0.06. The Kd (PDE10A [5]; [10]) was 0.097 nM.

In the case of `COc1cc2ccccc2nc1COc1ccc(-c2nn(C)cc2-c2ccncc2)cc1` [TZ1964B], the IC50 (PDE10A [2]; in vitro binding potency, ref Li et al. 2013a, read-out: IC50 toward PDE10A) is given as 0.4 ± 0.02 nM and the logP [4] is given as 1.98.
